Key:
Assay in all cases: combination Emax (second highest fraction inhibited in the dose matrix, 72 h); higher = more inhibition; extreme values may be limits of the assay
[1] = tested on: NCI-H1568 (Lung Adenocarcinoma)
Method in brief: (§1)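 Cell lines grown in DMEM/F12 or RPMI with 10% FBS were plated in 1536-well plates and held 24 hours at 37°C, 5% CO2 before 72 hours of exposure to two-drug dose matrices, with DMSO typically at 0.2%. CellTiter-Glo 2.0 luminescence gave viability, which was converted to inhibition. Vehicle wells were set to 0 and blank wells to 1. Combination Emax is the second-highest inhibition in the matrix, and Bliss excess is the observed combination effect minus the expected EA + EB − EA·EB, where EA and EB are the single-agent effects.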

[2] = tested on: OV-56 (Ovarian Carcinoma)
Method in brief: as §1

LOXIMVI (Melanoma) = tested on: LOXIMVI (Melanoma)
Method in brief: as §1

GAMG (Glioblastoma) = tested on: GAMG (Glioblastoma)
Method in brief: as §1

[3] = tested on: NCI-H524 (Small Cell Lung Carcinoma)
Method in brief: as §1

[4] = tested on: OVCAR-5 (Ovarian Carcinoma)
Method in brief: as §1

A673 (Ewing's Sarcoma) = tested on: A673 (Ewing's Sarcoma)
Method in brief: as §1

[5] = tested on: OE21 (Esophageal Squamous Cell Carcinoma)
Method in brief: as §1

[6] = tested on: LS-123 (Colorectal Carcinoma)
Method in brief: as §1

NCI-H2722 (Mesothelioma) = tested on: NCI-H2722 (Mesothelioma)
Method in brief: as §1

## Cc1c2c(nn1C)CSCc1cc(n(C)n1)CSc1cc(c3ccccc3c1)OCCCc1c(C(=O)O)n(C)c3c-2c(Cl)ccc13 [AZD5991] + C[C@@H](Nc1cc(F)cc(F)c1)c1cc(C(=O)N(C)C)cc2c(=O)cc(N3CCOCC3)oc12 [AZD8186] (first compound max 1 µM, 7x7, partner max 3 µM)
[1]
  combination Emax: 0.225
[2]
  combination Emax: 0.212
LOXIMVI (Melanoma)
  combination Emax: 0.268
GAMG (Glioblastoma)
  combination Emax: 0.585
[3]
  combination Emax: 0.436
[4]
  combination Emax: 0.267
A673 (Ewing's Sarcoma)
  combination Emax: 0.557
[5]
  combination Emax: 0.397
[6]
  combination Emax: 0.336
NCI-H2722 (Mesothelioma)
  combination Emax: 0.197

## Cc1c2c(nn1C)CSCc1cc(n(C)n1)CSc1cc(c3ccccc3c1)OCCCc1c(C(=O)O)n(C)c3c-2c(Cl)ccc13 [AZD5991] + Cc1cc2ncnn2cc1Nc1ncc2c(n1)n(C1CCOCC1)c(=O)n2C [AZD7648] (first compound max 1 µM, 7x7, partner max 10 µM)
[1]
  combination Emax: 0.232
[2]
  combination Emax: 0.189
LOXIMVI (Melanoma)
  combination Emax: 0.467
GAMG (Glioblastoma)
  combination Emax: 0.382
[3]
  combination Emax: 0.501
[4]
  combination Emax: 0.256
A673 (Ewing's Sarcoma)
  combination Emax: 0.471
[5]
  combination Emax: 0.385
[6]
  combination Emax: 0.399
NCI-H2722 (Mesothelioma)
  combination Emax: 0.234

## CS(=O)(=O)CCNCc1ccc(-c2ccc3ncnc(Nc4ccc(OCc5cccc(F)c5)c(Cl)c4)c3c2)o1 [Lapatinib] + C[C@@H](Oc1cc(-c2cnn(C3CCNCC3)c2)cnc1N)c1c(Cl)ccc(F)c1Cl [Crizotinib] (first compound max 10 µM, 7x7, partner max 10 µM)
[1]
  combination Emax: 0.952
[2]
  combination Emax: 0.872
LOXIMVI (Melanoma)
  combination Emax: 0.977
GAMG (Glioblastoma)
  combination Emax: 0.82
[3]
  combination Emax: 0.952
[4]
  combination Emax: 0.834
A673 (Ewing's Sarcoma)
  combination Emax: 0.808
[5]
  combination Emax: 0.936
[6]
  combination Emax: 0.746
NCI-H2722 (Mesothelioma)
  combination Emax: 0.449

## CC1(C)CCC(CN2CCN(c3ccc(C(=O)NS(=O)(=O)c4ccc(NCC5CCOCC5)c([N+](=O)[O-])c4)c(Oc4cnc5[nH]ccc5c4)c3)CC2)=C(c2ccc(Cl)cc2)C1 [Venetoclax] + Cc1cc2ncnn2cc1Nc1ncc2c(n1)n(C1CCOCC1)c(=O)n2C [AZD7648] (first compound max 1 µM, 7x7, partner max 10 µM)
[1]
  combination Emax: 0.135
[2]
  combination Emax: 0.15
LOXIMVI (Melanoma)
  combination Emax: 0.254
GAMG (Glioblastoma)
  combination Emax: 0.377
[3]
  combination Emax: 0.308
[4]
  combination Emax: 0.339
A673 (Ewing's Sarcoma)
  combination Emax: 0.597
[5]
  combination Emax: 0.206
[6]
  combination Emax: 0.313
NCI-H2722 (Mesothelioma)
  combination Emax: 0.25

## Cc1c2c(nn1C)CSCc1cc(n(C)n1)CSc1cc(c3ccccc3c1)OCCCc1c(C(=O)O)n(C)c3c-2c(Cl)ccc13 [AZD5991] + C=CCn1c(=O)c2cnc(Nc3ccc(N4CCN(C)CC4)cc3)nc2n1-c1cccc(C(C)(C)O)n1 [AZD1775] (first compound max 1 µM, partner max 1 µM)
[1]
  combination Emax: 0.434
[2]
  combination Emax: 0.244
LOXIMVI (Melanoma)
  combination Emax: 0.624
GAMG (Glioblastoma)
  combination Emax: 0.522
[3]
  combination Emax: 0.816
[4]
  combination Emax: 0.343
A673 (Ewing's Sarcoma)
  combination Emax: 0.614
[5]
  combination Emax: 0.719
[6]
  combination Emax: 0.66
NCI-H2722 (Mesothelioma)
  combination Emax: 0.397

## NC1(C(=O)N[C@@H](CCO)c2ccc(Cl)cc2)CCN(c2ncnc3[nH]ccc23)CC1 [Capivasertib] + Cn1cnc2c(F)c(Nc3ccc(Br)cc3Cl)c(C(=O)NOCCO)cc21 [Selumetinib] (first compound max 10 µM, 7x7, partner max 10 µM)
[1]
  combination Emax: 0.229
[2]
  combination Emax: 0.398
LOXIMVI (Melanoma)
  combination Emax: 0.782
GAMG (Glioblastoma)
  combination Emax: 0.653
[3]
  combination Emax: 0.303
[4]
  combination Emax: 0.69
A673 (Ewing's Sarcoma)
  combination Emax: 0.469
[5]
  combination Emax: 0.924
[6]
  combination Emax: 0.555
NCI-H2722 (Mesothelioma)
  combination Emax: 0.336

## Cc1c2c(nn1C)CSCc1cc(n(C)n1)CSc1cc(c3ccccc3c1)OCCCc1c(C(=O)O)n(C)c3c-2c(Cl)ccc13 [AZD5991] + C1CN(CCC1(C(=O)N[C@@H](CCO)C2=CC=C(C=C2)Cl)N)C3=NC=NC4=C3C=CN4 [Capivasertib] (first compound max 1 µM, 7x7, partner max 3 µM)
[1]
  combination Emax: 0.191
[2]
  combination Emax: 0.169
LOXIMVI (Melanoma)
  combination Emax: 0.313
GAMG (Glioblastoma)
  combination Emax: 0.477
[3]
  combination Emax: 0.452
[4]
  combination Emax: 0.215
A673 (Ewing's Sarcoma)
  combination Emax: 0.421
[5]
  combination Emax: 0.631
[6]
  combination Emax: 0.281
NCI-H2722 (Mesothelioma)
  combination Emax: 0.173

## COc1nnc2ccc(N3CCC(c4ccc(OCCN5CCN(C)C(=O)[C@H]5C)cc4)CC3)nn12 [AZD5153] + Cn1cnc2c(F)c(Nc3ccc(Br)cc3Cl)c(C(=O)NOCCO)cc21 [Selumetinib] (first compound max 1 µM, 7x7, partner max 10 µM)
[1]
  combination Emax: 0.413
[2]
  combination Emax: 0.336
LOXIMVI (Melanoma)
  combination Emax: 0.877
GAMG (Glioblastoma)
  combination Emax: 0.527
[3]
  combination Emax: 0.575
[4]
  combination Emax: 0.685
A673 (Ewing's Sarcoma)
  combination Emax: 0.604
[5]
  combination Emax: 0.861
[6]
  combination Emax: 0.794
NCI-H2722 (Mesothelioma)
  combination Emax: 0.516

## COc1nnc2ccc(N3CCC(c4ccc(OCCN5CCN(C)C(=O)[C@H]5C)cc4)CC3)nn12 [AZD5153] + CCN(CCO)CCCOc1ccc2c(Nc3cc(CC(=O)Nc4cccc(F)c4)[nH]n3)ncnc2c1 [AZD2811] (first compound max 1 µM, 7x7, partner max 1 µM)
[1]
  combination Emax: 0.283
[2]
  combination Emax: 0.283
LOXIMVI (Melanoma)
  combination Emax: 0.861
GAMG (Glioblastoma)
  combination Emax: 0.609
[3]
  combination Emax: 0.97
[4]
  combination Emax: 0.545
A673 (Ewing's Sarcoma)
  combination Emax: 0.616
[5]
  combination Emax: 0.693
[6]
  combination Emax: 0.44
NCI-H2722 (Mesothelioma)
  combination Emax: 0.521

From the supplement of paper PMC11061612
